The values that follow come from BindingDB's records for doi:10.7270/Q2930RSV (Burnham Center For Chemical Genomics, 2012).

A value given as a limit tells only on which side of the number the result lay.

For orientation: IC50 means the concentration at which inhibition is half-maximal. The low end stands for greater potency, the high end for weaker potency.

For this experiment, the target named is T1, Caspase-3 (Homo sapiens, UniProt P42574).
T1 sequence (P42574 whole entry): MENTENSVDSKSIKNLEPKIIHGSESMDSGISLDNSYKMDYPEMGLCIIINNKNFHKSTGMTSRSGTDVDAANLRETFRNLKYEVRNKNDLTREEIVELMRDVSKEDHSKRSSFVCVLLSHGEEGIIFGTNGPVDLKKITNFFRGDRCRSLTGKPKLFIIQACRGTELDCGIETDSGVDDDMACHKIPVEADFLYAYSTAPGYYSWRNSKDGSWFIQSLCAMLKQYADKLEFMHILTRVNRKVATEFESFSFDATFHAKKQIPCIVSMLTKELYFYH
Compound `CCC(=O)c1ccc(OCc2cn(CC(=O)c3ccc(O)cc3)nn2)cc1` [1-[4-[[1-[2-(4-hydroxyphenyl)-2-oxoethyl]triazol-4-yl]methoxy]phenyl]propan-1-one] returned a 50% inhibitory concentration (IC50) greater than 100 µM.
For `CC1(C)Cc2c(nn(-c3ccccc3)c(=N)c2C#N)CO1` the value was 1.09 µM.
Then `O=[N+]([O-])c1ccc(-n2[n-]c(=[N+]3CCOCC3)cc2O)cc1` [5-(4-morpholinyl)-2-(4-nitrophenyl)-4H-pyrazol-3-one], with greater than 100 µM; and `CC(NC(=O)COC(=O)c1ccc([N+](=O)[O-])s1)c1ccccc1` (stereo not drawn) [[2-oxo-2-(1-phenylethylamino)ethyl] 5-nitrothiophene-2-carboxylate], with greater than 100 µM.
Then `CCN(CC)c1ccc(NC2CC(=O)N(CCc3ccc(OC)cc3)C2=O)cc1` (stereo not drawn) [3-[4-(diethylamino)anilino]-1-[2-(4-methoxyphenyl)ethyl]pyrrolidine-2,5-dione], with greater than 100 µM.
Compound `CN(C)c1cc(N=NCc2ccccc2)nc(N(C)C)n1` [N2,N2,N4,N4-tetramethyl-N6-[(phenylmethylidene)amino]pyrimidine-2,4,6-triamine] gave an IC50 of 50.7 µM.
For `Cc1[nH]n(-c2ccccc2)c(=O)c1S(=O)(=O)c1ccccc1` [5-methyl-2-phenyl-4-(phenylsulfonyl)-1H-pyrazol-3-one] the value was greater than 100 µM; for `CCCCOc1cc(NCc2ccccc2)c2ncn(C(C)C)c2c1`, greater than 100 µM; for `COC(=O)c1ccc(C)cc1C1CN=NC12Cc1cc(C)ccc1C2=O` (stereo not drawn) [4-methyl-2-(6-methyl-3-oxo-4'-spiro[1H-indene-2,5'-3,4-dihydropyrazole]yl)benzoic acid methyl ester], greater than 100 µM.
For `O=C(CCc1ccccc1)NNc1cc(N2CCCCC2)nc(N2CCCCC2)n1` [N'-[2,6-di(piperidin-1-yl)pyrimidin-4-yl]-3-phenylpropanehydrazide] the value was greater than 100 µM.
For `CC(C)(C)c1ccc(C(=O)NNc2cc(N3CCCCC3)nc(N3CCCCC3)n2)cc1` the value was greater than 100 µM; for `N#CC1(CCCN2CCCCC2)c2ccccc2CCc2ccccc21` [MLS001178552], greater than 100 µM; for `COc1ccc(NC(=O)NNc2cc(N3CCOCC3)nc(N3CCOCC3)n2)cc1` [MLS000765810], greater than 100 µM.
For the compound `CN(C)c1ccc(NC(=O)c2ccc(Cn3cc([N+](=O)[O-])cn3)cc2)cc1` [MLS000727576], the IC50 was greater than 100 µM.
Consider `O=C(COC(=O)c1ccc([N+](=O)[O-])s1)NCCc1ccccc1` [MLS002159124], for which the IC50 is greater than 100 µM.
As to `O=C(NNc1cc(N2CCCC2)nc(N2CCCC2)n1)c1ccc([N+](=O)[O-])cc1` [N'-(2,6-dipyrrolidin-1-ylpyrimidin-4-yl)-4-nitrobenzohydrazide], the IC50 is greater than 100 µM.
Then `NS(=O)(=O)c1ccc(CCNC(=O)COC(=O)c2ccc([N+](=O)[O-])o2)cc1`, with greater than 100 µM; and `COc1ccc(-c2csc(CCn3[nH]c(C)cc3=O)n2)cc1` [SMR000347900], with greater than 100 µM.
